# Measured values as given in patent publication US9714224B2, “Heterocyclic compounds and methods of their use” (Novartis AG, priority 2013, dated 2017).
# Molecular target: AT2 receptor (Homo sapiens (Human), UniProt P50052)
# Assay: AT2 receptor binding assay ([125I]-CGP42112A displacement, HEK293/AT2 receptor cell membranes)
# Conditions: membranes of HEK293 cells transiently transfected with AT2 receptor; radioligand [125I]-CGP42112A; RT, 1.5 hrs
# Description: Biological Example 1: AT2 Receptor Binding
# • 1. Trypsin-EDTA (for preparation of 100 mL) • Trypsin 0.25 g • 2% EDTA 2 mL • PBS 98 mL • Dissolve trypsin in 2% EDTA and PBS completely; sterilize the solution by passing through a […] membrane filter; store at 4° C. • 2. DMEM medium (for preparation of IL) • The powder was dissolved into 950 mL of distilled water with gentle stirring until the solution becomes clear. • Add NaHCO3 1.176 g for DMEM medium. • Adjust pH of medium to 0.2-0.3 below final working pH using 1 M NaOH or 1 M HCl. Add slowly with stirring. • Dilute to 1 liter with ddH2O. • Sterilize the medium immediately by filtration. • Store at 4° C. • 3. TE buffer • 20 mM Tris-HCl, pH 7.4. • 5 mM EDTA • 4. Binding Assay Buffer • 50 mM HEPES, pH 7.4 • 5 mM MgCl2 • 1 mM CaCl2 • 0.2% BSA • 5. […] Cells were ready for transfection after overnight incubation (the confluence reaches around 80%). • 75 μL Lipofectamine™ 2000 diluted in 6.25 mL OptiMEM I Reduced Serum Medium, was mixed gently, and incubated at room temperature for 5 minutes, 50 μg expression plasmid DNA diluted in 6.25 mL OptiMEM I Reduced Serum Medium without serum was mixed gently. • After the 5 minute incubation, the diluted DNA was combined with the diluted Lipofectamine™ 2000 (total volume is 12.5 mL). […]
# Sequence of AT2 receptor (P50052 whole entry, species assumed): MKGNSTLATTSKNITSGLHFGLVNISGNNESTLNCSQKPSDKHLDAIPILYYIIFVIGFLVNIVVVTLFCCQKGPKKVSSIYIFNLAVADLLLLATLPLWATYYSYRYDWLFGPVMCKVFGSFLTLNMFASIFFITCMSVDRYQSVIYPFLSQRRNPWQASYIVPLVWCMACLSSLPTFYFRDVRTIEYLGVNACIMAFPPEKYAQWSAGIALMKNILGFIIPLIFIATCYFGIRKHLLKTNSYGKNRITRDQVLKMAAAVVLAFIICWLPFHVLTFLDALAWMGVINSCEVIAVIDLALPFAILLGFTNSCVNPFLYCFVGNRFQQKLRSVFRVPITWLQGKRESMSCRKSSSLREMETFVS
row,Compound,IC50 [nM]
1,COc1ccc2c(c1OCc1ccccc1)CC(C(=O)O[C@@H]1O[C@H](C(=O)O)[C@@H](O)[C@H](O)[C@H]1O)N(C(=O)C(c1ccccc1)c1ccccc1)C2 (some centres unmarked) [Compound 33],431
2,COc1ccc2c(c1O)C[C@@H](C(=O)NS(=O)(=O)N(C)C)N(C(=O)C(c1ccccc1)c1ccccc1)C2 [Compound 41],1790
